Measurements reported in patent EP4653435A1, “PRMT5-MTA INHIBITOR” (Suzhou Puhe Biopharma Co., Ltd., priority 2023, dated 2024).
Like-named read-outs stand apart in the source and are kept apart here. Blank lines part the entries; values can stand above or below the molecule they belong to.

Columns and labels:
[1] = test system: SDMA/HCT116-MTAPwt; experiment: In-cell arginine symmetric dimethylation inhibition (In-cell western, ICW), wild-type cells; type: cell-based; conditions: Homo sapiens, HCT-116, 96 hours
Protocol: (§1) 60 nL of different concentrations of compounds were added to each well using an Echo, and incubated at 37°C, 5% CO2 for 96 hours.
(§2) Next, 50 µL of 4% paraformaldehyde solution was added to each well and incubated at room temperature for 20 minutes to fix the cells. The solution in the wells was removed, and each well was rinsed four times with PBS solution containing 0.1% Tween 20 (PBST). To each well was then added 30 µL of ice-cold methanol. After standing at -20°C for 10 minutes, the methanol was removed and the wells washed four times with PBST. 30 µL of Odyssey blocking solution containing 0.5% Tween 20 was added to each well and shaken for 2 hours at room temperature. The blocking solution was removed and 30 µL of primary antibody (Symmetric Di-Methyl Arginine Motif [sdma-RG] MultiMab™ Rabbit mAb mix) diluted at 1:500 in Odyssey blocking solution containing 0.5% Tween 20 was added to each well. The plates were incubated overnight at 4°C, before removing the primary antibody and rinsing each well four times with PBST, 5 minutes per rinse. Secondary antibody (goat anti-rabbit IRDye 800CW, 1:800) and nuclear stain (DRAQ5, 1:10000) diluted in Odyssey blocking solution containing 0.5% Tween 20 were then added to each well before incubating at room temperature for 2 hours in the dark. The secondary antibody was removed, and the wells rinsed four times with PBST.
(§3) The sdme-RG and DRAQ5 signals were scanned at 800 nm and 700 nm respectively on a Li-Cor Odyssey instrument and the signal values recorded. The sdme-RG/DRAQ5 ratio was used to calculate the percentage inhibition of arginine symmetric dimethylation (SDMA), and the IC50 value calculated using GraphPad Prism software.

[2] = test system: HCT116-MTAPwt; experiment: 2D antiproliferative assay (CTG cell viability), wild-type cells; type: cell-based; conditions: Homo sapiens, HCT-116, 7-10 days
Protocol: (§4) HCT116 wild-type and MTAP-deficient cells were cultured in McCoy's 5A medium containing 10% FBS and 1% penicillin-streptomycin, and cultured in a 37°C, 5% CO2 constant temperature incubator. 40 µL of cell suspension was introduced into each well of a 384-well microplate. 40 nL of different concentrations of test compounds were added to each well using an Echo, before culturing in a 37°C, 5% CO2 constant temperature incubator for 7-10 days. 40 µL of CTG solution (Promega, Cat No. G7573) was added to each well and incubated in a 37°C, 5% CO2 constant temperature incubator for 30 minutes in the dark.

[3] = Mouse pharmacokinetics testing; type: in vivo, CD1 female mice
Protocol: CD1 female mice were used as test animals and administered the compounds orally/intravenously (oral dosage was 10 mg/kg and intravenous dosage was 2 mg/kg). Test protocol: Each oral and intravenous group consisted of three mice. […] Plasma drug concentrations after oral and intravenous administration were determined by LC/MS/MS, and the collected data analyzed using AB Sciex QTRAP 6500 software.

[4] = test system: SDMA/HCT116-MTAPdel; experiment: In-cell arginine symmetric dimethylation inhibition (In-cell western, ICW), MTAP-deficient cells; type: cell-based; conditions: for IC50: Homo sapiens, HCT-116, HCT116 MTAP-deficient cells, 96 hours; for Selectivity wt/MTAPdel: ratio SDMA IC50 wt / MTAPdel
Protocol: as §1, §2, §3

[5] = test system: HCT116-MTAPdel; experiment: 2D antiproliferative assay (CTG cell viability), MTAP-deficient cells; type: cell-based; conditions: for IC50: Homo sapiens, HCT-116, HCT116 MTAP-deficient cells, 7-10 days, CTG, read-out: HCT116-MTAPdel/IC50/nM; for HCT116WT IMTAPdel selectivity: ratio IC50 wild type / MTAPdel, antiproliferation
Protocol: as §4

[6] = Membrane permeability: Caco-2 assay; type: in vitro ADME; conditions: human; for efflux ratio: Caco-2, Efflux Ratio = Papp(B-A)/Papp(A-B); for Papp A→B / Papp B→A: Caco-2, apical pH 6.5, basolateral pH 7.4
Protocol: The membrane permeability of the molecules of the invention was evaluated. […] Efflux Ratio = Papp(B−A) /Papp(A−B) [formula]

[7] = Liver microsomal stability assay, human
Protocol: (§7) The compounds to be tested were co-incubated with liver microsomes of different species with or without the addition of NADPH. The final concentration of the test compounds in the test system was 1 µM, the final concentration of NADPH was 1 mM, and the final concentration of liver microsomes was 0.5 mg/mL.

[8] = Liver microsomal stability assay, mouse; type: in vitro ADME; conditions: mouse liver microsomes 0.5 mg/mL, compound 1 µM, NADPH 1 mM, 60 minute
Protocol: as §7

[9] = in vitro; conditions: dog, MDCK-MDR1, pH 7.4
Protocol: (§5) The membrane permeability of the molecules of the present invention was evaluated to predict their permeability to the brain.
(§6) The specific procedure was: 1. MDCK-MDR1 cells were pre-cultured at a density of 1.56*10^6 cells/mL in a 96-well plate at 37°C for 7 days. 2. The MDCKII-MDR1 plate was taken out of the incubator, rinsed twice with pre-warmed HBSS (10 mM HEPES, pH 7.4), and then incubated at 37°C for 30 minutes. 3. The stock solution of the compound to be tested was diluted with DMSO to obtain a 0.2 mM solution, and then diluted with HBSS (10 mM HEPES, pH 7.4) to obtain a 1 µM working solution. A blank control group was also diluted with DMSO to obtain a 0.2 mM solution, and then diluted with HBSS (10 mM HEPES, pH 7.4) to obtain a 1 µM working solution. The final concentration of DMSO in the culture system was 0.5%. 4. The transport rate of the drug in the apical to basolateral direction was determined: 125 µL of the 1 µM test compound solution was added to a Transwell insert (top compartment), before immediately transferring a 50 µL sample (D0 sample) from the top comparment to a new 96-well plate. The receiving plate wells (basolateral compartment) were filled with 235 µL HBSS (10 mM HEPES, pH 7.4) and incubated at 37°C for 2 hours. 5. Upon completion of the incubation, 50 µL samples were transferred from the donor and acceptor sides to the wells of a new 96-well plate, before adding 4 volumes of cold acetonitrile containing an appropriate internal standard (IS). Prior to LC-MS/MS analysis, 100 µL of the supernatant was taken and mixed with an appropriate volume of ultrapure water. Papp = (VA×[drug]acceptor)/(Area×Time×[drug]initial,donor) [formula] where VA is the volume of the receptor pores (unit:mL), Area is the surface area of the membrane (0.143 cm^2 for a Transwell-96 well permeable support), and time is the total transport time in seconds. Efflux Ratio = Papp(B−A) /Papp(A−B) [formula]

[10] = test system: MDR1 (P-gp); experiment: in vitro; conditions: dog, MDCK-MDR1, pH 7.4
Protocol: as §5, §6

[11] = female, CD1, mouse, in vivo, iv, 2 mg/kg
[12] = female, CD1, mouse, in vivo, po, 10 mg/kg

IC50 [1]: 578 nM
IC50 [2]: 275 nM
F ([3]; PO (10 mg/kg) vs IV (2 mg/kg), CD1 female mice): 31%
AUC(0-t) ([3]; mouse, IV (2 mg/kg), CD1 female mice, plasma, read-out: AUC0-24): 383 ng·h/mL
C0 ([3]; mouse, IV (2 mg/kg), CD1 female mice, plasma, read-out: C0): 1650 ng/mL
clearance ([3]; mouse, IV (2 mg/kg), CD1 female mice, plasma, read-out: Cl): 86.6 mL/min/kg
half-life ([3]; mouse, IV (2 mg/kg), CD1 female mice, plasma, read-out: T1/2 (converted)): 0.32 h
AUC(0-t) ([3]; mouse, PO (10 mg/kg), CD1 female mice, plasma, read-out: AUC0-24): 586 ng·h/mL
Cmax ([3]; mouse, PO (10 mg/kg), CD1 female mice, plasma, read-out: Cmax): 883 ng/mL
half-life ([3]; mouse, PO (10 mg/kg), CD1 female mice, plasma, read-out: T1/2 (converted)): 1.1 h
Tmax ([3]; mouse, PO (10 mg/kg), CD1 female mice, plasma, read-out: Tmax): 0.25 h
IC50 [4]: 0.6 nM
IC50 [5]: 2 nM
SMILES: C[C@H]1CC[C@H](c2ccc3scnc3c2)N(C(=O)C(=O)Nc2cnc(N)c3c2cnn3C)C1 [Compound P3b]

SMILES: CN(C(=O)C(=O)Nc1cnc(N)c2c1cnn2C)[C@@H]1COCc2nc(C(F)(F)F)ccc21 [Compound P9a]
IC50 [1]: 2450 nM
efflux ratio [6]: 2.9
Papp A→B [6]: 8.65 ×10⁻⁶ cm/s
Papp B→A [6]: 25.1 ×10⁻⁶ cm/s
IC50 [2]: 4000 nM
CLint scaled at 1 µM ([7]; liver microsomes): 2.1 mL/min/kg
F ([3]; female, CD1, mouse, in vivo): 77%
AUC(0-t) [3, 11]: 3990 ng·h/mL
C0 [3, 11]: 5650 ng/mL
clearance [3, 11]: 8.3 mL/min/kg
half-life [3, 11]: 1.2 h
AUC(0-t) [3, 12]: 15400 ng·h/mL
Cmax [3, 12]: 10800 ng/mL
Tmax [3, 12]: 0.25 h
half-life [3, 12]: 1.1 h
CLint scaled at 1 µM [8]: 10 mL/min/kg
IC50 [4]: 0.9 nM
Selectivity wt/MTAPdel [4]: 2722
IC50 [5]: 12 nM
HCT116WT IMTAPdel selectivity [5]: 333

SMILES: CN(C(=O)C(=O)Nc1cnc(N)c2c1cnn2C)C1COc2cc(C(F)(F)F)ccc21 (stereo not shown) [Compound P2]
efflux ratio [6]: 1.5
Papp A→B [6]: 13.5 ×10⁻⁶ cm/s
Papp B→A [6]: 20.5 ×10⁻⁶ cm/s
IC50 [2]: 2680 nM
CLint scaled at 1 µM ([7]; liver microsomes): 13 mL/min/kg
IC50 [5]: 32 nM
HCT116WT IMTAPdel selectivity [5]: 84

SMILES: Cc1cc(NC(=O)C(=O)N2C[C@@H](C)CC[C@@H]2c2ccc3scnc3c2)cnc1N [TNG908, reference compound]
IC50 [1]: 2210 nM
IC50 [2]: 1190 nM
IC50 [4]: 2.6 nM
Selectivity wt/MTAPdel [4]: 850
IC50 [5]: 43 nM
HCT116WT IMTAPdel selectivity [5]: 27

IC50 [2]: 1080 nM
CLint scaled at 1 h, 1 µM ([7]; microsomes): 20 mL/min/kg
F ([3]; mouse, in vivo): 59%
AUC(0-t) at 24 h ([3]; mouse, in vivo, iv, 2 mg/kg): 1480 ng·h/mL
C0 ([3]; mouse, in vivo, iv, 2 mg/kg): 1210 ng/mL
clearance ([3]; mouse, in vivo, iv, 2 mg/kg): 21.5 mL/min/kg
half-life ([3]; mouse, in vivo, iv, 2 mg/kg): 2.1 h
AUC(0-t) at 24 h ([3]; mouse, in vivo, po, 10 mg/kg): 4390 ng·h/mL
Cmax ([3]; mouse, in vivo, po, 10 mg/kg): 1100 ng/mL
Tmax ([3]; mouse, in vivo, po, 10 mg/kg): 0.5 h
half-life ([3]; mouse, in vivo, po, 10 mg/kg): 6.8 h
CLint scaled at 1 h, 1 µM [8]: 110 mL/min/kg
IC50 [5]: 6 nM
SMILES: CCN(C(=O)C(=O)Nc1cnc(N)c2c1cnn2C)[C@@H]1COc2cc(C(F)(F)F)ccc21 [Compound P19a]
HCT116WT IMTAPdel selectivity [5]: 181

IC50 [2]: 3140 nM
CLint scaled at 1 µM ([7]; liver microsomes): 9.4 mL/min/kg
F ([3]; female, CD1, mouse, in vivo): 74%
AUC(0-t) [3, 11]: 1410 ng·h/mL
C0 [3, 11]: 1070 ng/mL
clearance [3, 11]: 23 mL/min/kg
half-life [3, 11]: 2 h
AUC(0-t) [3, 12]: 5150 ng·h/mL
Cmax [3, 12]: 1850 ng/mL
Tmax [3, 12]: 0.25 h
half-life [3, 12]: 1.5 h
IC50 [5]: 13 nM
SMILES: CN(C(=O)C(=O)Nc1cnc(N)c2c1cnn2C)C1COc2cc(OC(F)(F)F)ccc21 (stereo not shown) [Compound P30]
HCT116WT IMTAPdel selectivity [5]: 241

SMILES: C[C@@H]1CC[C@@H](c2ccc3scnc3c2)N(C(=O)C(=O)Nc2cnc(N)c3c2cnn3C)C1 (racemic) [Compound P3]
Papp A→B [6]: 2.66 ×10⁻⁶ cm/s
Papp B→A [6]: 34.2 ×10⁻⁶ cm/s
IC50 [2]: 827 nM
CLint scaled at 1 h, 1 µM ([7]; liver microsomes): 23.9 mL/min/kg
IC50 [5]: 13 nM

SMILES: CCN(C(=O)C(=O)Nc1cnc(N)c2c1cnn2C)[C@@H]1COCc2nc(C(F)(F)F)ccc21 [Compound P28]
IC50 [2]: 1190 nM
CLint scaled at 1 µM ([7]; liver microsomes): 4.8 mL/min/kg
Papp A→B [9]: 10.7 ×10⁻⁶ cm/s
Papp B→A [9]: 34 ×10⁻⁶ cm/s
efflux ratio [10]: 3.2
IC50 [5]: 10 nM
HCT116WT IMTAPdel selectivity [5]: 119

SMILES: CN(C(=O)C(=O)Nc1cnc(N)c2c1cnn2C)C1COc2cc(S(=O)(=O)C(F)(F)F)ccc21 (stereo not shown) [Compound P33]
IC50 [2]: 1460 nM
Papp A→B [9]: 6.86 ×10⁻⁶ cm/s
Papp B→A [9]: 28.8 ×10⁻⁶ cm/s
efflux ratio [10]: 4.2
IC50 [5]: 9 nM
HCT116WT IMTAPdel selectivity [5]: 162

IC50 [2]: 196 nM
CLint scaled at 1 h, 1 µM ([7]; microsomes): 18 mL/min/kg
CLint scaled at 1 h, 1 µM [8]: 177 mL/min/kg
IC50 [5]: 9 nM
SMILES: C[C@H](c1ncccn1)N(Cc1ccc(C(F)(F)F)cn1)C(=O)C(=O)Nc1cnc(N)c2c1cnn2C [Compound P1]
HCT116WT IMTAPdel selectivity [5]: 22

SMILES: Cc1cc2cc(C(=O)N(Cc3ccc(C(F)(F)F)cn3)[C@H](C)c3ncccn3)ccc2nc1N [AM9747, reference compound]
IC50 [1]: 332 nM
IC50 [2]: 237 nM
IC50 [4]: 0.6 nM
IC50 [5]: 7 nM
